Test results taken from publication PMC5021161 (Environmental and Molecular Mutagenesis, 2016).
Like-named read-outs stand apart in the source and are kept apart here.

Columns and labels:
[1] = tested on: TK6 cells; details: for % MN: 2% Aroclor S9
[2] = tested on: TGx‐28.65 biomarker genes; details: 2015, cited from earlier work; for Dendogram TGx‐28.65 / NSC TGx‐28.65 / PCA TGx‐28.65: 1% BF/PB S9
[3] = tested on: ATF3; assay type: cell-based, human; details: 2% Aroclor S9, 4 hr + 3-4 hr recovery
[4] = tested on: CDKN1A; assay type: cell-based, human
[5] = tested on: GADD45A; assay type: cell-based, human
[6] = tested on: TK6 cells; details: 2% Aroclor S9, 4 hr + 20 hr recovery
[7] = tested on: TK6 cells; details: 2% Aroclor S9, 4 hr + 20 hr recovery; remark: listed apart in the source
[8] = tested on: TGx‐28.65 biomarker genes; details: for Dendogram TGx‐28.65 / NSC TGx‐28.65 / PCA TGx‐28.65: 2% Aroclor S9, 4 hr + 3-4 hr recovery
[9] = tested on: TK6 cells; details: 1% BF/PB S9, ref Buick et al., 2015, cited from earlier work
[10] = 1 μg/ml, 2% Aroclor S9, 4 hr + 3-4 hr recovery
[11] = 20 μg/ml, 2% Aroclor S9, 4 hr + 3-4 hr recovery
[12] = 280 μg/ml, 2% Aroclor S9, 4 hr + 3-4 hr recovery
[13] = 2 μg/ml, 2% Aroclor S9, 4 hr + 3-4 hr recovery

CC(=O)Nc1ccc(O)cc1 [Acetaminophen]
concentration range in which toxic effects are observed ([1]; human): 3000 to 10000 µM

O=P1(N(CCCl)CCCl)NCCCO1 (stereo not shown) [Cyclophosphamide]
fold increase in % MN above vehicle + S9 control ([1]; human): 8 fold

N.N.[Cl][Pt][Cl] [cisplatin]
classification using TGx‐28.65 ([2]; in the presence and absence of S9, ref Buick et al.): accurately classified the genotoxicity

c1ccc2c(c1)ccc1cc3c(ccc4ccccc43)cc12 [Dibenz[a,h]anthracene]
ATF3 fold change vs vehicle control (+S9) ([3]; 1 μg/ml): 1.1 fold change | ATF3 fold change vs vehicle control (+S9) ([3]; 20 μg/ml): 1.6 fold change | ATF3 fold change vs vehicle control (+S9) ([3]; 280 μg/ml): 2.3 fold change | CDKN1A fold change vs vehicle control (+S9) [4, 10]: 1.2 fold change | CDKN1A fold change vs vehicle control (+S9) [4, 11]: 2.4 fold change | CDKN1A fold change vs vehicle control (+S9) [4, 12]: 4.2 fold change | GADD45A fold change vs vehicle control (+S9) [5, 10]: 1.2 fold change | GADD45A fold change vs vehicle control (+S9) [5, 11]: 1.7 fold change | GADD45A fold change vs vehicle control (+S9) [5, 12]: 2.0 fold change | % Relative Survival ([6]; 1 μg/ml): 97.79% | % Relative Survival ([6]; 20 μg/ml): 64.12% | % Relative Survival ([6]; 280 μg/ml): 53.91% | % Apoptotic cells ([7]; 1 μg/ml): 9.74% | % Apoptotic cells ([7]; 20 μg/ml): 16.82% | % Apoptotic cells ([7]; 280 μg/ml): 31.79% | % MN ([1]; 1 μg/ml, 4 hr + 20 hr recovery): 2.16% | % MN ([1]; 20 μg/ml, 4 hr + 20 hr recovery): 3.42% | % MN ([1]; 280 μg/ml, 4 hr + 20 hr recovery): 3.80% | statistically significant % MN increase relative to controls ([1]; for at least one concentration, definitive study): over twofold | Dendogram TGx‐28.65 ([8]; 1 μg/ml): + | NSC TGx‐28.65 ([8]; 1 μg/ml): − | PCA TGx‐28.65 ([8]; 1 μg/ml): − | Dendogram TGx‐28.65 ([8]; 20 μg/ml): + | NSC TGx‐28.65 ([8]; 20 μg/ml): + | PCA TGx‐28.65 ([8]; 20 μg/ml): + | Dendogram TGx‐28.65 ([8]; 280 μg/ml): + | NSC TGx‐28.65 ([8]; 280 μg/ml): + | PCA TGx‐28.65 ([8]; 280 μg/ml): + | classification using TGx‐28.65 ([8]; low concentrations): non‐genotoxic | classification by hierarchical cluster analysis (TGx‐28.65 genes) ([8]; lowest concentration): genotoxic | classification using TGx‐28.65 ([8]; mid and high concentrations): genotoxic

c1ccc2c(c1)ccc1ccccc12 [Phenanthrene]
% Relative Survival ([6]; 8 μg/ml): 94.13% | % Relative Survival ([6]; 40 μg/ml): 65.32% | % Relative Survival ([6]; 100 μg/ml): 38.91% | % Relative Survival ([6]; 100 μg/ml, listed as phenanthrene): ~40% | % Apoptotic cells ([7]; 8 μg/ml): 10.60% | % Apoptotic cells ([7]; 40 μg/ml): 14.71% | % Apoptotic cells ([7]; 100 μg/ml): 26.73% | increase in % MN [1]: no significant increase | Dendogram TGx‐28.65 ([8]; 8 μg/ml): − | NSC TGx‐28.65 ([8]; 8 μg/ml): − | PCA TGx‐28.65 ([8]; 8 μg/ml): − | Dendogram TGx‐28.65 ([8]; 40 μg/ml): − | NSC TGx‐28.65 ([8]; 40 μg/ml): − | PCA TGx‐28.65 ([8]; 40 μg/ml): − | Dendogram TGx‐28.65 ([8]; 100 μg/ml): − | NSC TGx‐28.65 ([8]; 100 μg/ml): − | PCA TGx‐28.65 ([8]; 100 μg/ml): −

CC(C)OS(C)(=O)=O [isopropyl methanesulfonate]
classification using TGx‐28.65 ([2]; TK6 cells, biomarker development study, ref Li et al.): genotoxic

OC[C@H]1O[C@@](CO)(O[C@H]2O[C@H](CO)[C@@H](O)[C@H](O)[C@H]2O)[C@@H](O)[C@@H]1O [Sucrose]
CDKN1A fold change vs vehicle control (+S9) [4]: 0.4 fold change | GADD45A fold change vs vehicle control (+S9) [5]: 0.8 fold change | % Relative Survival ([6]; 1 mM): 95.04% | % Relative Survival ([6]; 10 mM): 90.93% | % Apoptotic cells ([7]; 1 mM): 8.98% | % Apoptotic cells ([7]; 10 mM): 9.75% | % MN ([1]; 1 mM, 4 hr + 20 hr recovery): 0.94% | % MN ([1]; 10 mM, 4 hr + 20 hr recovery): 0.97% | increase in % MN ([1]; definitive study, 2% Aroclor‐induced S9): no significant increase | Dendogram TGx‐28.65 ([8]; 1 mM): − | NSC TGx‐28.65 ([8]; 1 mM): − | PCA TGx‐28.65 ([8]; 1 mM): − | Dendogram TGx‐28.65 ([8]; 10 mM): − | NSC TGx‐28.65 ([8]; 10 mM): − | PCA TGx‐28.65 ([8]; 10 mM): −

C[C@@H]1C[C@H]2[C@@H]3CCC4=CC(=O)C=C[C@]4(C)[C@@]3(F)[C@@H](O)C[C@]2(C)[C@@]1(O)C(=O)CO [Dexamethasone]
% Apoptotic cells ([9]; 0.63 mM): 5.5% | % Apoptotic cells ([9]; 1 mM): 12.2% | Dendogram TGx‐28.65 ([2]; 0.63 mM, ref Buick et al.): − | NSC TGx‐28.65 ([2]; 0.63 mM, ref Buick et al.): − | PCA TGx‐28.65 ([2]; 0.63 mM, ref Buick et al.): − | Dendogram TGx‐28.65 ([2]; 1 mM, ref Buick et al.): − | NSC TGx‐28.65 ([2]; 1 mM, ref Buick et al.): − | PCA TGx‐28.65 ([2]; 1 mM, ref Buick et al.): −

O=[N+]([O-])c1ccc2c(c1)Cc1ccccc1-2 [2‐Nitrofluorene]
% Apoptotic cells ([7]; 10 μM): 9.84% | % Apoptotic cells ([7]; 50 μM): 12.62% | % Apoptotic cells ([7]; 300 μM): 20.43% | % MN ([1]; 10 μM, 4 hr + 20 hr recovery): 1.48% | % MN ([1]; 50 μM, 4 hr + 20 hr recovery): 2.23% | % MN ([1]; 300 μM, 4 hr + 20 hr recovery): 3.13% | Dendogram TGx‐28.65 ([8]; 10 μM): − | NSC TGx‐28.65 ([8]; 10 μM): − | PCA TGx‐28.65 ([8]; 10 μM): − | Dendogram TGx‐28.65 ([8]; 50 μM): − | NSC TGx‐28.65 ([8]; 50 μM): + | PCA TGx‐28.65 ([8]; 50 μM): + | Dendogram TGx‐28.65 ([8]; 300 μM): − | NSC TGx‐28.65 ([8]; 300 μM): + | PCA TGx‐28.65 ([8]; 300 μM): + | classification by hierarchical cluster analysis (TGx‐28.65 genes) ([8]; all concentrations): non‐genotoxic | classification using TGx‐28.65 ([8]; low concentrations): non‐genotoxic | classification using TGx‐28.65 ([8]; mid and high concentrations): genotoxic

Nc1ccc2cc3ccccc3cc2c1 [2‐Aminoanthracene]
ATF3 fold change vs vehicle control (+S9) ([3]; 2 μg/ml): 2.3 fold change | CDKN1A fold change vs vehicle control (+S9) [4, 13]: 4.6 fold change | GADD45A fold change vs vehicle control (+S9) [5, 13]: 1.7 fold change | % Relative Survival ([6]; 2 μg/ml): 46.78% | % Relative Survival ([6]; 2 μg/ml, listed as 2‐aminoanthracene): 47% | % Apoptotic cells ([7]; 2 μg/ml): 18.48% | % MN ([1]; 2 μg/ml, 4 hr + 20 hr recovery): 1.22% | fold increase in % MN above vehicle + S9 control ([1]; high concentration, definitive study, 4 hr + 20 hr recovery): 1.8 fold | Dendogram TGx‐28.65 ([8]; 2 μg/ml): + | NSC TGx‐28.65 ([8]; 2 μg/ml): + | PCA TGx‐28.65 ([8]; 2 μg/ml): + | probability of being genotoxic (NSC, TGx‐28.65) ([8]; all concentrations): > 0.9 | classification using TGx‐28.65 ([8]; mid and high concentrations): genotoxic
